According to US12129229B2, “Amarouciaxanthin A esters and uses thereof” (GAT THERAPEUTICS, S.L., priority 2021, dated 2024):

Columns and labels:
rodent models = conditions: Biochem Biophys Res Commun, 2020, 528, 305-310; cited from earlier work
[1] = ACX-Ac oral kinetic assay: plasma levels after intragastric administration; format: in vivo, mice Hsd:ICR (CD-1); conditions: female mice
Experimental: Immunocompetent mice from the strain Hsd:ICR (CD-1) (females, 6-7 weeks old from ENVIGO), were housed under sterile conditions at a constant temperature of 20-22° C. and relative humidity (45-65%) under daily cycles of light/darkness (12 hours). Sterilized water and food were available ad libitum.
Amarouciaxanthin A acetate (ACX-Ac) was dissolved at 1 mg/mL in a suitable vehicle and sterilized by filtration. Animals were weighted before the assay to determine the appropriate dispensing volume at 10 mL/kg. Formulation was administered once, intragastrically, at 10 mg/kg. Blood was collected at different time points, as stated in Table 1. It was extracted either through the facial vein or by intracardiac puncture (end points), on recipients containing 5 μL of 0.5 M EDTA.
Blood samples were analyzed by HPLC-MS/MS following proprietary analytical methods and the concentration of ACX in each sample was determined. A noncompartmental pharmacokinetic analysis was carried out using individual plasma concentrations versus sampling times by means of the PKPlus® software version 2.0 (Simulations Plus, Lancaster, CA 93534, USA).

Row | Compound | effect on hepatic oxidative stress, inflammation, and fibrosis (rodent models) | ACX-Ac in plasma samples ([1]; ACX-Ac 10 mg/kg once intragastrically, HPLC-MS/MS, 2 min to 72 h) | area under the concentration-time curve (AUCt) of ACX ([1]; analyte ACX after ACX-Ac 10 mg/kg once intragastrically, noncompartmental analysis) [µM·h] | Cmax ([1]; analyte ACX after ACX-Ac 10 mg/kg once intragastrically, noncompartmental analysis, read-out: maximum observed plasma concentration (Cmax) of ACX) [µM]
1 | CC1=CC(=O)CC(C)(C)[C@@]1(O)CC(=O)/C(C)=C/C=C/C(C)=C/C=C/C=C(C)/C=C/C=C(\C)C=C=C1C(C)(C)C[C@H](O)C[C@@]1(C)O [ACX, Amarouciaxanthin A] | significantly inhibit hepatic oxidative stress, inflammation, and fibrosis | – | – | –
2 | Amarouciaxanthin A acetate [ACX-Ac] | – | not detected | 80.59 | 9.35
